Molecules are shown by their SMILES.

T3 sequence (P28223 whole entry): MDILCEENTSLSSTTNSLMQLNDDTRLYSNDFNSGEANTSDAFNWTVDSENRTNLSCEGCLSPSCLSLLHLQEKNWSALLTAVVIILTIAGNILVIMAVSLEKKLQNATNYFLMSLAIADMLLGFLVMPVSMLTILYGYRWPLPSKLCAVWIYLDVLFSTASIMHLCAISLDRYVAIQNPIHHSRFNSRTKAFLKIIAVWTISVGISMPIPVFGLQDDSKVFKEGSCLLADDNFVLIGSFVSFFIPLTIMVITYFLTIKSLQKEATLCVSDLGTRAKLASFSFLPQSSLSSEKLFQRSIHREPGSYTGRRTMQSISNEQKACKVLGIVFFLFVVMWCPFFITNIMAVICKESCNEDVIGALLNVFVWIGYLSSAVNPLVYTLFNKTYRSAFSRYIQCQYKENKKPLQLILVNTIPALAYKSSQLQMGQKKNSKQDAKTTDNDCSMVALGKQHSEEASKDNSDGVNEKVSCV

In the first assay the target is T1, 5-HT7bR (Homo sapiens, UniProt P34969).
T1 construct: gene HTR7; human splice isoform 5-HT7b stably expressed in HEK293 cells; membranes
T1 sequence (P34969 1-432): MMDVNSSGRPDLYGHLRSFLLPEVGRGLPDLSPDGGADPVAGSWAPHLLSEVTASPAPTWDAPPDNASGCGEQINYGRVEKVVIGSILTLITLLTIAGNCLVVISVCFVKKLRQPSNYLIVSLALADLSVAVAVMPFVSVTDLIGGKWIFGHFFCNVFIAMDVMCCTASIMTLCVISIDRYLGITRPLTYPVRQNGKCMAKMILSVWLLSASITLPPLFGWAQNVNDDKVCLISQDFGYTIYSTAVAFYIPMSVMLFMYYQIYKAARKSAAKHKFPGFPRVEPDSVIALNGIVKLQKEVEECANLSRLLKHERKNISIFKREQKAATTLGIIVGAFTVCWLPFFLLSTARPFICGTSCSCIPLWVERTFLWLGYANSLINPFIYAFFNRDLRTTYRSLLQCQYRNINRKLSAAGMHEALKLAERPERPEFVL
Put plainly: [3H]-5-CT displacement, HEK293 membranes. The format is binding.
Details: not given
The text has this: [3H]-5-CT displacement, HEK293 membranes on 5-HT7bR
Consider `O=S(=O)(c1ccccc1)N1CC2(CCN(Cc3ccccc3F)C2)c2ccccc21` (centres unmarked) [44a, 1′-(2-Fluorobenzyl)-1-(phenylsulfonyl)spiro[indoline-3,3′-pyrrolidine]], for which the Ki was determined as 78.9 µM.

`COc1ccc(C2NCCC23C(=O)Nc2ccccc23)cc1OC` (centres unmarked) [compound 7, 7] yielded a Ki of 2.69 µM.

Molecule `O=C1Nc2ccccc2C12CCNC2c1ccc(OCc2ccc(F)cc2)cc1` (centres unmarked) [compound 8, 8] displayed a Ki of 1.09 µM.

`O=C1Nc2ccccc2C12CCNC2c1ccc2c(c1)OCO2` (centres unmarked) [compound 9, 9]: the Ki came to 8.82 µM.

`O=C1Nc2ccccc2C12CCNC2c1ccc2c(c1)OCCO2` (centres unmarked) [compound 10, 10] registered a Ki of 12.7 µM.

Turning to `N#Cc1cccnc1Oc1ccc(C2NCCC23C(=O)Nc2ccccc23)cc1` (centres unmarked) [compound 11, 11], the Ki is 59 µM.

`O=C1Nc2ccccc2C12CCNC2c1cccc2cccnc12` (centres unmarked) [compound 12, 12] showed a Ki of 10.5 µM.

With `COc1cc(C2NCCC23C(=O)Nc2ccccc23)ccc1OC(F)F` (centres unmarked) [compound 13, 13], the Ki turned out to be 7.49 µM.

In turn, `CC(C)c1ccc(C2NCCC23C(=O)Nc2ccccc23)cc1` (centres unmarked) [compound 14, 14] registered a Ki of 8.98 µM.

`Cn1c(=O)n(C)c2cc(C3NCCC34C(=O)Nc3ccccc34)ccc21` (centres unmarked) [compound 15, 15] came in with a Ki of 46.7 µM.

Staying with this assay, now noted: read-out: 5-HT7.
Regarding `O=S(=O)(c1ccccc1)N1CC2(CCN(Cc3ccccc3)C2)c2ccccc21` (centres unmarked) [39a, 1′-Benzyl-1-(phenylsulfonyl)spiro[indoline-3,3′-pyrrolidine]], the Ki was found to be 55.8 µM.

On to `CN1CCC2(C1)CN(S(=O)(=O)c1ccccc1)c1ccccc12` (centres unmarked) [40a, 1′-Methyl-1-(phenylsulfonyl)spiro[indoline-3,3′-pyrrolidine]], for which the Ki worked out at 40.2 µM.

For `O=S(=O)(c1ccccc1)N1CC2(CCN(Cc3cccc(F)c3)C2)c2ccccc21` (centres unmarked) [44b, 1′-(3-Fluorobenzyl)-1-(phenylsulfonyl)spiro[indoline-3,3′-pyrrolidine]], the Ki is 31.5 µM.

Turning to `O=S(=O)(c1ccccc1)N1CC2(CCN(Cc3ccc(F)cc3)C2)c2ccccc21` (centres unmarked) [44c, 1′-(4-Fluorobenzyl)-1-(phenylsulfonyl)spiro[indoline-3,3′-pyrrolidine]], the Ki turned out to be 15.7 µM.

Take `O=S(=O)(c1ccccc1F)N1CC2(CCN(Cc3ccccc3)C2)c2ccccc21` (centres unmarked) [46a, 1′-Benzyl-1-((2-fluorophenyl)sulfonyl)spiro[indoline-3,3′-pyrrolidine]]: the Ki amounted to 42.6 µM.

Consider `O=S(=O)(c1cccc(F)c1)N1CC2(CCN(Cc3ccccc3)C2)c2ccccc21` (centres unmarked) [46b, 1′-Benzyl-1-((3-fluorophenyl)sulfonyl)spiro[indoline-3,3′-pyrrolidine]], for which the Ki amounted to 76 µM.

As for `O=S(=O)(c1ccc(F)cc1)N1CC2(CCN(Cc3ccccc3)C2)c2ccccc21` (centres unmarked) [46c, 1′-Benzyl-1-((4-fluorophenyl)sulfonyl)spiro[indoline-3,3′-pyrrolidine]], the Ki amounted to 56.1 µM.

On to `O=C1Nc2ccccc2C12CCNC2c1cccc(F)c1` (centres unmarked) [compound 6, 2′-(3-fluorophenyl)spiro[indoline-3,3′-pyrrolidin]-2-one], for which the Ki is 8.48 µM.

Take `O=C1N(S(=O)(=O)c2ccccc2)c2ccccc2C12CCNC2` (centres unmarked) [compound 17, 1-(Phenylsulfonyl)spiro[indoline-3,3′-pyrrolidin]-2-one]: the Ki was found to be 58.3 µM.

A further assay deals with T2, 5-HT6R (Homo sapiens, UniProt P50406).
T2 construct: gene HTR6; full-length human receptor stably expressed in HEK293 cells; membranes
T2 sequence (P50406 whole entry): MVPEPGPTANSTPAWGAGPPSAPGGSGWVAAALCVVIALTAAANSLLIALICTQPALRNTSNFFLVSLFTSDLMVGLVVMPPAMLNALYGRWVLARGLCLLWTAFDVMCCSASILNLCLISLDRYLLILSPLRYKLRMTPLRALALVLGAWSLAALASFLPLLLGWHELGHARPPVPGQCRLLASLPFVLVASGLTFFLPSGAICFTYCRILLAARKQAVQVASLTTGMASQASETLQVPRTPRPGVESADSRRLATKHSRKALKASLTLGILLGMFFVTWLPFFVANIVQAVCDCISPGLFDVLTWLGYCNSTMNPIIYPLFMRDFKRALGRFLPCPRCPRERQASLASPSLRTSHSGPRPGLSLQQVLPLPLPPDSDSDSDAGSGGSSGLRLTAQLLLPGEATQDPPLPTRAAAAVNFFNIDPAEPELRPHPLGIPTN
Put plainly: [3H]-LSD displacement, HEK293 membranes. The format is binding.
Details: not given
The text has this:
[3H]-LSD displacement, HEK293 membranes on 5-HT6R
Consider `O=S(=O)(c1ccccc1)N1CC2(CCN(Cc3ccncc3)C2)c2ccccc21` (centres unmarked) [39b, 1-(Phenylsulfonyl)-1′-(pyridin-4-ylmethyl)spiro[indoline-3,3′-pyrrolidine]], for which the Ki came to 6.6 µM.

`O=S(=O)(c1ccccc1)N1CC2(CCN(Cc3ccccc3F)C2)c2ccccc21` (centres unmarked) [44a, 1′-(2-Fluorobenzyl)-1-(phenylsulfonyl)spiro[indoline-3,3′-pyrrolidine]] displayed a Ki of 4.53 µM.

Turning to `COc1ccc(C2NCCC23C(=O)Nc2ccccc23)cc1OC` (centres unmarked) [compound 7, 7], the Ki was found to be 2.26 µM.

Molecule `O=C1Nc2ccccc2C12CCNC2c1ccc(OCc2ccc(F)cc2)cc1` (centres unmarked) [compound 8, 8] came in with a Ki of 3.18 µM.

In the case of `O=C1Nc2ccccc2C12CCNC2c1ccc2c(c1)OCO2` (centres unmarked) [compound 9, 9], the Ki is 3.2 µM.

As for `O=C1Nc2ccccc2C12CCNC2c1ccc2c(c1)OCCO2` (centres unmarked) [compound 10, 10], the Ki is 4.11 µM.

Take `N#Cc1cccnc1Oc1ccc(C2NCCC23C(=O)Nc2ccccc23)cc1` (centres unmarked) [compound 11, 11]: the Ki worked out at 6.2 µM.

`O=C1Nc2ccccc2C12CCNC2c1cccc2cccnc12` (centres unmarked) [compound 12, 12] registered a Ki of 6.63 µM.

For the molecule `COc1cc(C2NCCC23C(=O)Nc2ccccc23)ccc1OC(F)F` (centres unmarked) [compound 13, 13], the Ki was found to be 7.73 µM.

Regarding `CC(C)c1ccc(C2NCCC23C(=O)Nc2ccccc23)cc1` (centres unmarked) [compound 14, 14], the Ki turned out to be 8.62 µM.

As to `Cn1c(=O)n(C)c2cc(C3NCCC34C(=O)Nc3ccccc34)ccc21` (centres unmarked) [compound 15, 15], the Ki is 9.49 µM.

Consider `O=C1Nc2ccc(F)cc2C12CCNC2c1ccc(F)c(Cl)c1` (centres unmarked) [compound 16, 16], for which the Ki came out at 16.5 µM.

Molecule `O=C1Nc2ccccc2C12CCN(S(=O)(=O)c1ccccc1)C2` (centres unmarked) [compound 18, 1′-(Phenylsulfonyl)spiro[indoline-3,3′-pyrrolidin]-2-one] showed a Ki of 6.86 µM.

The same assay, now with this note: read-out: 5-HT6.
As for `O=S(=O)(c1ccccc1)N1CC2(CCN(Cc3ccccc3)C2)c2ccccc21` (centres unmarked) [39a, 1′-Benzyl-1-(phenylsulfonyl)spiro[indoline-3,3′-pyrrolidine]], the Ki came to 0.76 µM.

Take `CN1CCC2(C1)CN(S(=O)(=O)c1ccccc1)c1ccccc12` (centres unmarked) [40a, 1′-Methyl-1-(phenylsulfonyl)spiro[indoline-3,3′-pyrrolidine]]: the Ki was determined as 1.85 µM.

For the molecule `CCN1CCC2(C1)CN(S(=O)(=O)c1ccccc1)c1ccccc12` (centres unmarked) [40b, 1′-Ethyl-1-(phenylsulfonyl)spiro[indoline-3,3′-pyrrolidine]], the Ki worked out at 2.42 µM.

As to `O=S(=O)(c1ccccc1)N1CC2(CCN(Cc3cccc(F)c3)C2)c2ccccc21` (centres unmarked) [44b, 1′-(3-Fluorobenzyl)-1-(phenylsulfonyl)spiro[indoline-3,3′-pyrrolidine]], the Ki turned out to be 1.97 µM.

For the molecule `O=S(=O)(c1ccccc1)N1CC2(CCN(Cc3ccc(F)cc3)C2)c2ccccc21` (centres unmarked) [44c, 1′-(4-Fluorobenzyl)-1-(phenylsulfonyl)spiro[indoline-3,3′-pyrrolidine]], the Ki is 1.77 µM.

For `O=S(=O)(c1ccccc1F)N1CC2(CCN(Cc3ccccc3)C2)c2ccccc21` (centres unmarked) [46a, 1′-Benzyl-1-((2-fluorophenyl)sulfonyl)spiro[indoline-3,3′-pyrrolidine]], the Ki stood at 0.19 µM.

Take `O=S(=O)(c1cccc(F)c1)N1CC2(CCN(Cc3ccccc3)C2)c2ccccc21` (centres unmarked) [46b, 1′-Benzyl-1-((3-fluorophenyl)sulfonyl)spiro[indoline-3,3′-pyrrolidine]]: the Ki amounted to 0.71 µM.

With `O=S(=O)(c1ccc(F)cc1)N1CC2(CCN(Cc3ccccc3)C2)c2ccccc21` (centres unmarked) [46c, 1′-Benzyl-1-((4-fluorophenyl)sulfonyl)spiro[indoline-3,3′-pyrrolidine]], the Ki is 2.45 µM.

For the molecule `O=C1Nc2ccccc2C12CCNC2c1cccc(F)c1` (centres unmarked) [compound 6, 2′-(3-fluorophenyl)spiro[indoline-3,3′-pyrrolidin]-2-one], the Ki is 6.75 µM.

As to `O=C1N(S(=O)(=O)c2ccccc2)c2ccccc2C12CCNC2` (centres unmarked) [compound 17, 1-(Phenylsulfonyl)spiro[indoline-3,3′-pyrrolidin]-2-one], the Ki was 12.3 µM.

The next assay concerns the target T3, 5-HT2AR (Homo sapiens, UniProt P28223).
T3 construct: gene HTR2A; full-length human receptor expressed from plasmid in CHO-K1 cells (PerkinElmer); membranes
Put plainly: [3H]-Ketanserin displacement, CHO-K1 membranes.
Details: not given
It is filed as binding. The text has this:
[3H]-Ketanserin displacement, CHO-K1 membranes on 5-HT2AR
Take `O=S(=O)(c1ccccc1)N1CC2(CCN(Cc3ccncc3)C2)c2ccccc21` (centres unmarked) [39b, 1-(Phenylsulfonyl)-1′-(pyridin-4-ylmethyl)spiro[indoline-3,3′-pyrrolidine]]: the Ki was found to be 26.9 µM.

`COc1ccc(C2NCCC23C(=O)Nc2ccccc23)cc1OC` (centres unmarked) [compound 7, 7] had a Ki of 5.45 µM.

In turn, `O=C1Nc2ccccc2C12CCNC2c1ccc(OCc2ccc(F)cc2)cc1` (centres unmarked) [compound 8, 8] displayed a Ki of 2.28 µM.

As to `O=C1Nc2ccccc2C12CCNC2c1ccc2c(c1)OCO2` (centres unmarked) [compound 9, 9], the Ki was 2.69 µM.

`O=C1Nc2ccccc2C12CCNC2c1ccc2c(c1)OCCO2` (centres unmarked) [compound 10, 10] returned a Ki of 4.33 µM.

With `N#Cc1cccnc1Oc1ccc(C2NCCC23C(=O)Nc2ccccc23)cc1` (centres unmarked) [compound 11, 11], the Ki was found to be 8.68 µM.

With `O=C1Nc2ccccc2C12CCNC2c1cccc2cccnc12` (centres unmarked) [compound 12, 12], the Ki stood at 1.12 µM.

The molecule `COc1cc(C2NCCC23C(=O)Nc2ccccc23)ccc1OC(F)F` (centres unmarked) [compound 13, 13] returned a Ki of 5.77 µM.

Regarding `CC(C)c1ccc(C2NCCC23C(=O)Nc2ccccc23)cc1` (centres unmarked) [compound 14, 14], the Ki is 4.54 µM.

With `Cn1c(=O)n(C)c2cc(C3NCCC34C(=O)Nc3ccccc34)ccc21` (centres unmarked) [compound 15, 15], the Ki worked out at 23.7 µM.

`O=C1Nc2ccc(F)cc2C12CCNC2c1ccc(F)c(Cl)c1` (centres unmarked) [compound 16, 16] gave a Ki of 53.9 µM.

For the molecule `O=C1Nc2ccccc2C12CCN(S(=O)(=O)c1ccccc1)C2` (centres unmarked) [compound 18, 1′-(Phenylsulfonyl)spiro[indoline-3,3′-pyrrolidin]-2-one], the Ki came to 87.4 µM.

The assay is the same for the next values; noted with them: read-out: 5-HT2A.
As to `O=S(=O)(c1ccccc1)N1CC2(CCN(Cc3ccccc3)C2)c2ccccc21` (centres unmarked) [39a, 1′-Benzyl-1-(phenylsulfonyl)spiro[indoline-3,3′-pyrrolidine]], the Ki amounted to 4.76 µM.

For `CN1CCC2(C1)CN(S(=O)(=O)c1ccccc1)c1ccccc12` (centres unmarked) [40a, 1′-Methyl-1-(phenylsulfonyl)spiro[indoline-3,3′-pyrrolidine]], the Ki is 4.52 µM.

For `CCN1CCC2(C1)CN(S(=O)(=O)c1ccccc1)c1ccccc12` (centres unmarked) [40b, 1′-Ethyl-1-(phenylsulfonyl)spiro[indoline-3,3′-pyrrolidine]], the Ki is 3.82 µM.

`O=C1Nc2ccccc2C12CCNC2c1cccc(F)c1` (centres unmarked) [compound 6, 2′-(3-fluorophenyl)spiro[indoline-3,3′-pyrrolidin]-2-one]: the Ki worked out at 5.05 µM.

The next assay addresses T4, 5-HT1AR (Homo sapiens, UniProt P08908).
T4 construct: gene HTR1A; full-length human receptor stably expressed in HEK293 cells; membranes
T4 sequence (P08908 1-422): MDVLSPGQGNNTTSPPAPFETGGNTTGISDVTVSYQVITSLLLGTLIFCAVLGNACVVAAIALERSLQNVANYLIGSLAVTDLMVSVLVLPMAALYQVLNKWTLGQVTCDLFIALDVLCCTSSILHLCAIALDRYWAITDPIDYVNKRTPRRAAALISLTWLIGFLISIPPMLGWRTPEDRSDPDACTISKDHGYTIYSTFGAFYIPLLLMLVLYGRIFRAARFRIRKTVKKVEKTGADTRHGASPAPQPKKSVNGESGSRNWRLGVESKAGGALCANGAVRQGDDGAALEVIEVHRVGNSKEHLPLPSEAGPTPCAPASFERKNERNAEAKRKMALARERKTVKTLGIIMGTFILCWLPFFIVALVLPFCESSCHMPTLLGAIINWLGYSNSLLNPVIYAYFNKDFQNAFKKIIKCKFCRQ
Put plainly: [3H]-8-OH-DPAT displacement, HEK293 membranes. The format is binding.
Details: not given
The text has this: [3H]-8-OH-DPAT displacement, HEK293 membranes on 5-HT1AR
Turning to `COc1ccc(C2NCCC23C(=O)Nc2ccccc23)cc1OC` (centres unmarked) [compound 7, 7], the Ki turned out to be 7.07 µM.

`O=C1Nc2ccccc2C12CCNC2c1ccc(OCc2ccc(F)cc2)cc1` (centres unmarked) [compound 8, 8] yielded a Ki of 1.74 µM.

Molecule `O=C1Nc2ccccc2C12CCNC2c1ccc2c(c1)OCO2` (centres unmarked) [compound 9, 9] returned a Ki of 9.84 µM.

`O=C1Nc2ccccc2C12CCNC2c1ccc2c(c1)OCCO2` (centres unmarked) [compound 10, 10] yielded a Ki of 12.1 µM.

`N#Cc1cccnc1Oc1ccc(C2NCCC23C(=O)Nc2ccccc23)cc1` (centres unmarked) [compound 11, 11]: the Ki turned out to be 49.1 µM.

With `O=C1Nc2ccccc2C12CCNC2c1cccc2cccnc12` (centres unmarked) [compound 12, 12], the Ki worked out at 45.7 µM.

Turning to `COc1cc(C2NCCC23C(=O)Nc2ccccc23)ccc1OC(F)F` (centres unmarked) [compound 13, 13], the Ki came out at 7.14 µM.

In turn, `CC(C)c1ccc(C2NCCC23C(=O)Nc2ccccc23)cc1` (centres unmarked) [compound 14, 14] returned a Ki of 7.76 µM.

With `Cn1c(=O)n(C)c2cc(C3NCCC34C(=O)Nc3ccccc34)ccc21` (centres unmarked) [compound 15, 15], the Ki turned out to be 40.5 µM.

Still in this assay, the particulars now being: read-out: 5-HT1A.
As to `O=C1Nc2ccccc2C12CCNC2c1cccc(F)c1` (centres unmarked) [compound 6, 2′-(3-fluorophenyl)spiro[indoline-3,3′-pyrrolidin]-2-one], the Ki amounted to 16.9 µM.
